Literature values in patent US20260024626A1, “TOXICITY […], OPERATION METHOD OF TOXICITY […], AND OPERATION PROGRAM OF TOXICITY […]” (FUJIFILM Corporation, priority 2023, published 2026).
Like-named read-outs stand apart in the source and are kept apart here.

Legend:
[1] = actual test outcome, as against the positive outcome expected from the assumed metabolic reaction
[2] = With metabolic activation (rat liver extract and coenzyme added)
[3] = Without metabolic activation (no rat liver extract and coenzyme)

Molecule	Ames test result (toxicity), TA1535, Covalent bonding to DNA (TA1535; [2])	Ames test result (toxicity), TA1535, Covalent bonding to DNA (TA1535; [3])	Ames test result (toxicity), TA1537, Intercalation between base pairs (TA1537; [2])	Ames test result (toxicity), TA1537, Intercalation between base pairs (TA1537; [3])	Ames test result (toxicity), WP2uvrA, Covalent bonding to DNA (WP2uvrA; [2])	Ames test result (toxicity), WP2uvrA, Covalent bonding to DNA (WP2uvrA; [3])	Ames test result (toxicity), TA98, Intercalation between base pairs (TA98; [2])	Ames test result (toxicity), TA98, Intercalation between base pairs (TA98; [3])	Ames test result (toxicity), TA100, Covalent bonding to DNA (TA100; [2])	Ames test result (toxicity), TA100, Covalent bonding to DNA (TA100; [3])	determination in the in vitro toxicity evaluation test [1]
Nc1ccccc1O [compound A]	No	No	No	No	No	No	No	No	Toxic	No	
Nc1ccccc1-c1ccccc1 [compound B]	No	No	No	No	No	No	No	No	Toxic	No	
Nc1ccccc1Cl [compound C]	No	No	No	No	No	No	No	No	No	No	
monomethylnitrobenzene											negative determination
